The target in experiment [1] is Apoptosis regulator Bcl-2 (Homo sapiens, UniProt P10415). Kind of experiment: BCL-2 TR-FRET Assay: The following assay concentrations and times were used: 3 ng BCL-2, 5 μl of 1:100 anti-His Tb-labeled donor, 5 μl of 1:100 Dye-labeled acceptor, 5 μl of 1:40 BCL-2 Peptide Ligand, and 2 ul of test compound, with 60 min incubation time. The results of the assay were read using a Clariostar (BMG Labtech) plate reader with the following parameters: TR FRET, 340ex/620 and 665em; 60 μsec Delay; and 500 μsec integration.
Sequence of Apoptosis regulator Bcl-2 (P10415 whole entry): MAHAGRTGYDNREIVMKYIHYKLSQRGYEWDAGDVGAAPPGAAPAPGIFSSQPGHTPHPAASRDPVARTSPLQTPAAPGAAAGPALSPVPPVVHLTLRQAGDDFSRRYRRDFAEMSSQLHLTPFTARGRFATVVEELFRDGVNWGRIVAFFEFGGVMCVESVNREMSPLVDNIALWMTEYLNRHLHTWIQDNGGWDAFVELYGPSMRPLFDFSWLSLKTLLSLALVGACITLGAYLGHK

Another experiment has as its target Bcl-2-like protein 1 (Homo sapiens, UniProt Q07817). Kind of experiment: BCL-XL TR-FRET Assay: The following assay concentrations and times were used: 10.5 ng BCL-XL, 5 μl of 1:100 anti-His Tb-labeled donor, 5 μl of 1:100 Dye-labeled acceptor, 5 μl of 1:80 BCL-XL Peptide Ligand, and 2 μl of test compound, with 60 min incubation time. The results of the assay were read using a Clariostar (BMG Labtech) plate reader with the following parameters: TR FRET, 340ex/620 and 665em; 60 μsec Delay; and 500 μsec integration. For orientation: In TR-FRET formats the signal depends on donor and acceptor labels being close together.

Bounds are passed on as bounds.

Data on 2 compounds can be found in ChEMBL document CHEMBL5729797, “Compounds having tetrahydroindolizine-1-carboxamide as BCL-2 inhibitors” (2023).

As a reminder, the IC50 is the concentration needed to halve the response being measured. A lower IC50 goes with inhibition by little substance.

Sequence of Bcl-2-like protein 1 (Q07817 whole entry): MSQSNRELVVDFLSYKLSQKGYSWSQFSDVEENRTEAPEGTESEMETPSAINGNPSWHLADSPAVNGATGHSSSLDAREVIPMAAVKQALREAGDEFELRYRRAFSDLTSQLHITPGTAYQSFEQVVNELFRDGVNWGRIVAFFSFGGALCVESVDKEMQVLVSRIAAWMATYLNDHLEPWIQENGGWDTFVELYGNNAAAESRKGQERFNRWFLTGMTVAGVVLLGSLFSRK

Consider `O=C(c1cc(-c2cc3c(cc2C(=O)N2Cc4ccccc4C[C@H]2CN2CCOCC2)OCO3)n2c1CCCC2)N(Cc1ccccc1F)c1ccc(O)cc1`, for which the half-inhibitory concentration (IC50) in experiment [1] was less than 5 nM; against Bcl-2-like protein 1 it was less than 2000 nM. Take `O=C(c1cc(-c2cc3c(cc2C(=O)N2Cc4ccccc4C[C@H]2CN2CCOCC2)OCO3)n2c1CCCC2)N(Cc1ccc(F)cc1)c1ccc(O)cc1`: the IC50 against Bcl-2-like protein 1 is more than 4000 nM.
